Data: paper PMC7272640, “Molecular docking, synthesis and biological evaluation of Vascular Endothelial Growth Factor (VEGF) B based peptide as antiangiogenic agent targeting the second domain of the Vascular Endothelial Growth Factor Receptor 1 (VEGFR1D2) for anticancer application” (Signal Transduction and Targeted Therapy, 2020)
Where a SMILES comes first, the peptide text is derived from it.

Tests used:
VEGFR1D2 = assay: Microscale thermophoresis (MST) binding of VGB3 to VEGFR1D2
Protocol: Previously, a tight association between VEGFR1 D2 and VEGF has also been reported (113pM).[4]
The binding affinity of peptide to its cognate receptor was measured by Microscale thermophoresis (MST) on a Nanotemper Monolith NT.115 instrument (Nanotemper Technologies GmbH). Purified VEGFR1D2 was freshly labeled with the Monolith His-Tag RED-tris-NTA labeling dye according to the supplied protocol (Nanotemper Technologies, GmbH). The labeled protein was concentrated using a PES centrifugation filter (3 kDa cutoff; VWR). Measurements were done in MST buffer (50 mM Tris, 250 mM NaCl, pH=7) in standard capillaries (K002; Nanotemper Technologies GmbH). The final concentrations of either labeled protein in the assay were 25 nM. The ligands (VGB3) was titrated in 1:1 dilutions following manufacturer’s recommendations and starting from 0.25 mM. All binding reactions were incubated for 10 min at room temperature followed by centrifugation at 20,000 g before loading into capillaries. All measurements were performed in triplicate using automatically assigned 20% LED and 60% MST power; Laser On-time was 30 sec and Laser Off time was 5 sec.

[1] = tested on: human extracellular domains (ECD) of VEGFR1D2; assay: ELISA-based displacement assay (VEGF-A/VEGFR-1 interaction); format: binding; conditions: at 100 μM VGB3; btVEGF165 100 pM; plate coated with VEGFR1D2 ECD 20 ng/well, 5 nM; PBS; peptide 45 min at 37 °C then 2 h with btVEGF-A165; chemiluminescence; triplicate wells
Protocol: A white flat-bottom high-binding 96-well plate (COSTAR 3922) was coated with human extracellular domains (ECD) of VEGFR1D2 (R&D Systems, Abingdon, UK) in PBS (20 ng/well, 5 nM) overnight at 4 °C. The plate was washed twice with 200 μL of wash buffer (PBS containing 0.1% (v/v) Tween 20) and treated with 200 μL of blocking buffer (PBS containing 3% (w/v) BSA) at 37 °C for 2 h, followed by two washes with wash buffer. Volumes of 50 μL of peptide VGB3 solution at twice the desired final concentration in PBS were added in triplicate wells and the plate was kept at 37 °C for 45 min. A solution of btVEGF-A165 (R & D Systems, Abingdon, UK) at twice the desired final concentration (100 pM) in 50 μL PBS was added. After 2 h incubation, the plate was washed two times with wash buffer. […] Volumes of 100 μL of Supersignal West Pico Chemiluminescent Substrate (Pierce, Rockford, IL, USA) were finally added and the chemiluminescence was quantified with a TECAN spectrophotometer plate-reader. The percentages of displacement were calculated by the following formula: 100×[1 – (S − NS)/(MS – NS)] where S is the signal measured, NS is the nonspecific binding signal defined as the signal measured in the absence of coated receptor on the microplate, and MS is the maximum binding signal obtained with btVEGF-A165 without the peptide VGB3.

[2] = tested on: 4T1 mammary carcinoma cells; format: cell-based, murine
Protocol: 2× 10^3 HUVEC and 4T1 cell-line were cultured in DMEM medium supplemented with 10% FBS at 37 °C with 5% CO2 in 96-well plate. After 24 h, The cells were incubated in the media supplemented with 2% FBS, different concentrations (0, 0.015, 0.03, 0.061 μM) of VGB3 in the presence of (0.03 μg.ml^-1) VEGF-A (Sigma, St. Louis, MO) for 24 and 48 respectively. Then, cell proliferation was quantified by 3-(4,5–dimethylthiazol-2-yl)-2 ,5-diphenyl tetrazolium bromide (MTT) (Sigma, St. Louis, MO) solution (5 mg/mL) in PBS (pH 7.4) was added to each well and the plates were incubated in the dark at 37 °C for 4 h. Then the insoluble purple formazan product was dissolved by dimethyl sulfoxide (DMSO). Absorbance was measured at 570 nm using an ELISA plate reader. The assay was performed in triplicate.

HUVEC = HUVEC Cytodex 3D bead sprouting assay; format: cell-based, human; conditions: HUVEC Cytodex beads in collagen gel; VGB3 0, 0.015, 0.03, 0.061 μM; VEGF (0.75 pM; method: 0.03 μg/ml VEGF-A); 24 h
Protocol: The fibrin or collagen sprouting angiogenesis assay was performed as previously described. Type I collagen was obtained as previously reported. HUVECs were allowed to attach to Cytodex microcarrier beads (Amersham Pharmacia Biotech, Sweden) by incubation in DMEM medium with 10% FBS for 4 h at 37 °C in 5% CO2 (60 μL of […] Cytodex beads were coated with 400 μl of HUVECs). EC-covered beads were embedded into the collagen gel under sodium bicarbonate conditions (Sigma, St. Louis, Missouri, USA), distributed in 96-well plates (100 μl/well), and placed in a 37 °C, 5% CO2 incubator for 30 min. Then DMEM supplemented with 2% FBS with a range of concentrations (0, 0.015, 0.03, 0.061 μM) of VGB3 in the presence of (0.03 μg.ml^-1) VEGF-A were added on top of the collagen gel. After 24 h, angiogenesis was monitored microscopically. All the capillary-like structures were photographed using an inverted microscope (Olympus BX-51, Japan) with a scale bar of 20 μm, and the number of sprouts grown on beads was quantified by ImageJ software. The assays were performed in triplicate.

CC(C)C[C@@H]1NC(=O)CNC(=O)[C@H](CC(=O)O)NC(=O)[C@H](CC(=O)O)NC(=O)[C@@H]2CCCN2C(=O)[C@@H]2CCCN2C(=O)[C@H](CCCNC(=N)N)NC(=O)[C@@H](NC(=O)[C@@H](N)CCC(=O)O)CSSC[C@@H](C(=O)O)NC1=O [VGB3] (HELM PEPTIDE1{E.C.R.P.P.D.D.G.L.C}$PEPTIDE1,PEPTIDE1,2:R3-10:R3$$$V2.0)
Kd (VEGFR1D2; MST, Monolith NT.115, His-Tag RED-tris-NTA labelled VEGFR1D2 25 nM, VGB3 titrated in 1:1 dilutions from 0.25 mM, 50 mM Tris, 250 mM NaCl, pH=7, 10 min at room temperature, triplicate, read-out: dissociation constant (Kd)): 1960 ± 690 nM
binding constant fold lower than Kd of VEGFA to entire extracellular portion of VEGFR1 (VEGFR1D2; VGB3 Kd 1.96 μM vs VEGFA Kd ~50 nM): 40 fold
displacement of btVEGF165 [1]: up to 63%
IC50 ([2]; 48 h): 30 nM
IC50 fold lower than that of VEGFR1D2 fragments ([2]; VGB3 IC50 30 nM in 4T1 vs ~180 nM for VEGFR1D2 fragments in HUVEC (ref 3)): 6 fold
angiogenesis in vitro (sprouting) (HUVEC): inhibits angiogenesis in vitro
